According to patent US20040063729A1, “Triazolopyrimidines” (priority 2000, published 2004):

System: Kidney beans (variety:Serina)
Assay: Phytotoxicity tested at the same time in the foliar spray test
Assay type: in vivo
Conditions: active compound concentration of 500 ppm; foliar spray on kidney beans
Method: Kidney beans (variety:Serina) were cultivated in plastic pots each having a diameter of 6 cm. The previously prepared solution of the prescribed concentration of active compound was sprayed over the plants in the 1 leaf stage at a rate of 20 ml per pot. One day after spraying, a gel obtained by mixing a suspension of spores of artificially cultured Botrytis cinera and PDA medium was added dropwise to the removed first leaf for infection in a plastic box having a size of 20 while maintaining humidity. 5 days after the inoculation, the infection rate per pot was classified and evaluated according to the following standard, and the control value (%) was calculated. Phytotoxicity was tested at the same time. This test is an average of the results of 3 replications. The evaluation of the infection rate and the calculation method of the control value were conducted as follows: […]

**Q.** With Clc1cccc(Cc2cnc3ncnn3c2Cl)c1Cl [I-142] as the compound, how does the Phytotoxicity read?
**A.** Its Phytotoxicity is “No phytotoxicity”.

**Q.** For Clc1cccc(Cc2c(Cl)nc3ncnn3c2Cl)c1 [I-76], which Phytotoxicity is on record?
**A.** Its Phytotoxicity is “No phytotoxicity”.

**Q.** For FC(F)(F)c1cccc(Cc2c(Cl)nc3ncnn3c2Cl)c1 [I-73], which Phytotoxicity is on record?
**A.** The Phytotoxicity was “No phytotoxicity”.

**Q.** With Fc1cc(F)c(Cc2c(Cl)nc3ncnn3c2Cl)c(F)c1 [I-20] as the compound, how does the Phytotoxicity read?
**A.** Its Phytotoxicity is “No phytotoxicity”.

**Q.** For Cc1cccc(Cc2c(Cl)nc3ncnn3c2Cl)c1 [I-75], which Phytotoxicity is on record?
**A.** Its Phytotoxicity is “No phytotoxicity”.

**Q.** Which Phytotoxicity does the source give for Clc1ccc(Cc2c(Cl)nc3ncnn3c2Cl)cc1 [I-95, 5,7-dichloro-6-(4-chlorobenzyl)[1,2,4]triazolo[1,5-a]pyrimidine] here?
**A.** The Phytotoxicity was “No phytotoxicity”.

**Q.** Which Phytotoxicity does the source give for Fc1ccc(F)c(Cc2c(Cl)nc3ncnn3c2Cl)c1F [I-11] here?
**A.** Its Phytotoxicity is “No phytotoxicity”.

**Q.** For Cc1ccc(Cc2c(Cl)nc3ncnn3c2Cl)cc1 [I-94], which Phytotoxicity is on record?
**A.** The Phytotoxicity was “No phytotoxicity”.

**Q.** For Clc1nc2ncnn2c(Cl)c1Cc1ccccc1 [I-110], which Phytotoxicity is on record?
**A.** The Phytotoxicity was “No phytotoxicity”.

**Q.** With Fc1cc(F)c(Cc2c(Cl)nc3ncnn3c2Cl)cc1F [I-18] as the compound, how does the Phytotoxicity read?
**A.** Its Phytotoxicity is “No phytotoxicity”.

**Q.** With CC(c1ccccc1)c1c(Cl)nc2ncnn2c1Cl (stereo not shown) [I-112] as the compound, how does the Phytotoxicity read?
**A.** The Phytotoxicity was “No phytotoxicity”.

**Q.** For Clc1ccc(Cc2cnc3ncnn3c2Cl)cc1Cl [I-146], which Phytotoxicity is on record?
**A.** The Phytotoxicity was “No phytotoxicity”.

**Q.** With Fc1ccc(Cc2c(Cl)nc3ncnn3c2Cl)c(F)c1F [I-6] as the compound, how does the Phytotoxicity read?
**A.** The Phytotoxicity was “No phytotoxicity”.

**Q.** For FC(F)(F)Oc1ccc(Cc2c(Cl)nc3ncnn3c2Cl)cc1 [I-104], which Phytotoxicity is on record?
**A.** Its Phytotoxicity is “No phytotoxicity”.

System: not given
Assay: not given
Conditions: not given

**Q.** With Clc1c(Cc2ccccc2)cnc2ncnn12 [I-111, 6-benzyl-7-chloro[1,2,4]triazolo[1,5-a]pyrimidine] as the compound, how does the melting point read?
**A.** The melting point was 123 to 127 °C.

**Q.** For Clc1ccc(Cc2c(Cl)nc3ncnn3c2Cl)cc1 [I-95, 5,7-dichloro-6-(4-chlorobenzyl)[1,2,4]triazolo[1,5-a]pyrimidine], which melting point is on record?
**A.** The melting point was 165 to 167 °C.
